Earlier results, collected in patent publication US7374770B2, “Topical composition for follicular delivery of an ornithine decarboxylase inhibitor” (SkinMedica, Inc., priority 2001, dated 2008).

Conditions: undesirable secondary pharmacological effect, known

brain 4-aminobutyric acid levels: increases
SMILES: C#CC(N)CCCN (stereo not shown) [5-hexyne-1,4-diamine]
